The record followed here is patent US4336192A, “5,6-Dihydro-11-alkylene-morphanthridin-6-ones” (BASF Aktiengesellschaft, priority 1979, dated 1982).

Data set [1] relates to female NMRI mice. As to the kind of experiment: Sedative effect: orientation hypermotility in a new environment, measured photoelectrically. It counts as in vivo. The following applies: for ED50: Mus musculus, 0.5 h, read-out: Sedative effect ED 50%, oral, female NMRI mice, dose which reduces orientation hypermotility by 50% vs untreated controls, 30 min after administration. On the procedure: The substances are administered orally to groups of 4×3 or 8×3 female NMRI mice. The orientation hypermotility induced by a new environment is determined photoelectrically, 30 minutes after the administration of the substances, for a period of 30 minutes.

Data set [2] concerns female NMRI mice. Briefly: Analgesic effect: D'amour and Smith tail-flick method. Format: in vivo. (In hot-plate and tail-flick tests a longer latency is read as antinociception.)
Experimental: The analgesic effect is determined by means of the D'amour and Smith (1941) tail-flick method. In this, the substances are administered intraperitoneally to groups of 10 female NMRI mice. The pain reaction is triggered 30 minutes after administration. The reaction time, until the tail is flicked out of the way after exposure to a focused light beam, is measured.
Data set [3] concerns female NMRI mice. Briefly: Anti-cholinergic effect: protection against death from Physostigmin. The following applies: for ED50: Mus musculus, read-out: Anti-cholinergic effect ED 50%, oral, 30 min before Physostigmin 0.825 mg/kg s.c., female NMRI mice, dose which protects 50% of animals against death; for Anti-cholinergic effect R.A. (relative activity): Clozapin = 1.00. It counts as in vivo. How it is done: 3. Anti-cholinergic effect
A lethal dose (0.825 mg/kg) of Physostigmin is administered subcutaneously to groups of 10 female NMRI mice. The test substances are administered orally 30 minutes before administering the Physostigmin.

Data set [4] has as its system female Sprague-Dawley rats. As to the kind of experiment: Apomorphine-antagonistic effect: apomorphine-triggered jaw motions (mandibulogram). It counts as in vivo. Particulars: Rattus norvegicus, sc, read-out: Apomorphine antagonism ED 50%; female Sprague-Dawley rats; 1.5 mg of apomorphine/kg s.c.; dose which reduces number of jaw movements by 50%. On the procedure: 4. Apomorphine-antagonistic effect
Jaw motions are triggered in groups of 4-6 female Sprague-Dawley rats by subcutaneous administration of 1.5 mg of apomorphine/kg, and are recorded by means of implanted electrodes (KUBACKI mandibulogram, 1978).

Another data set is described as follows: Acute toxicity. Particulars: mouse, in vivo, ip; intraperitoneal, female NMRI mice; dose which causes death of 50% of animals; read-out: Toxicity LD 50. On the procedure:
The substances are administered intraperitoneally to groups of 5-10 female NMRI mice.

Structures are written as SMILES.

For `CN1CCN(C2=Nc3ccccc3Cc3ccccc32)CC1` [Perlapin, reference compound], the ED50 in the data set with female NMRI mice [1] is 2.05 mg/kg; in the data set on female NMRI mice [3], over 21.5 mg/kg; in data set [4], 22 mg/kg. Also, the “Analgesic effect ED 100%” value in the data set on female NMRI mice [2] (intraperitoneal, female NMRI mice, dose which lengthens tail-flick reaction time by 100% vs control, 30 min after administration) is on record as over 21.5. For the same compound, the “Anti-cholinergic effect R.A. (relative activity)” value in the data set with female NMRI mice [3] was under 0.66. The LD50 in “Acute toxicity” is 215 mg/kg.

Take `N#CC=C1c2ccccc2N=C(NCCN2CCCCC2)c2ccccc21` (mixture of isomers) [Example 39 (cis-trans mixture), cis,trans-11-Cyanomethylene-6-(2-piperidin-1-ylethylamino)-morphanthridine.1/2H2 O]: the ED50 with female NMRI mice [1] is 1.61 mg/kg; in the data set with female NMRI mice [3], over 10 mg/kg; in data set [4] it was 46 mg/kg. The “Sedative effect (in words)” value with female NMRI mice [1] (result in words) is on record as “strong sedative effects”. The “Analgesic effect R.A. (relative activity)” value in the data set with female NMRI mice [2] (relative activity, Clozapin = 1.00) is over 0.21. Besides, the “Anti-cholinergic effect R.A. (relative activity)” value in the data set with female NMRI mice [3] was over 1.41. Besides, the LD50 in “Acute toxicity” stood at 5.35 mg/kg.
